Assay results from US20080182822A1, “Liquid Pharmaceutical Compositions Comprising a Bisphosphonate Compound” (Besins Healthcare SA, priority 2006, published 2008).
Several values for one entry are separate records, joined by “and”; a condition that tells them apart may be missing. Equal entries are not always repeated. Where two headings read alike, the source gives them in different places.

Details: rat; for Feces Excretion, Amount Excreted (% of Dose), 8 hours: collection 0-8 hours; for Feces Excretion, Amount Excreted (% of Dose), 120 hours / Urinary Excretion, Amount Excreted (% of Dose), 120 hours: collection 96-120 hours; for Feces Excretion, Amount Excreted (% of Dose), 144 hours / Urinary Excretion, Amount Excreted (% of Dose), 144 hours: collection 120-144 hours; for Feces Excretion, Amount Excreted (% of Dose), 168 hours / Urinary Excretion, Amount Excreted (% of Dose), 168 hours: collection 144-168 hours
[1] = intravenous 0.2 mg/kg (Group 1), Mean
[2] = intravenous 0.2 mg/kg (Group 1), individual animals, 0.2 mg/kg
[3] = intravenous 0.2 mg/kg (Group 1), collection 24-48 hours, individual animals, 0.2 mg/kg
[4] = intravenous 0.2 mg/kg (Group 1), collection 48-72 hours, Mean
[5] = intravenous 0.2 mg/kg (Group 1), collection 48-72 hours, individual animals, 0.2 mg/kg
[6] = intravenous 0.2 mg/kg (Group 1), collection 72-96 hours, Mean
[7] = intravenous 0.2 mg/kg (Group 1), collection 72-96 hours, individual animals, 0.2 mg/kg
[8] = intravenous 0.2 mg/kg (Group 1), necropsy Day 4, Mean
[9] = intravenous 0.2 mg/kg (Group 1), necropsy Day 4, individual animals, 0.2 mg/kg
[10] = intravenous 0.2 mg/kg (Group 1), necropsy Day 8, Mean
[11] = intravenous 0.2 mg/kg (Group 1), necropsy Day 8, individual animals, 0.2 mg/kg

NCCCC(O)(P(=O)(O)O)P(=O)(O)O [14C-alendronate]
Recovery from Treated Skin, % of Dose (dermal (Group 2), necropsy Day 8, individual animals): 0.25% and 0.22% (2×) and 0.33% and 0.39% | Urinary Excretion, Total Excretion (% of Dose), 0-72 hours (in vivo): 1.16% of Dose | Feces Excretion, Amount Excreted (% of Dose), 72 hours (in vivo, iv, 0.2 mg/kg): 1.17% of Dose | Feces Excretion, Amount Excreted (% of Dose), 96 hours (in vivo, iv, 0.2 mg/kg): 1.17% of Dose | Urinary Excretion, Amount Excreted (% of Dose), 24 hours (in vivo, iv, 0.2 mg/kg): 1.19% of Dose and 1.28% of Dose and 1.37% of Dose and 1.27% of Dose and 1.06% of Dose | Urinary Excretion, Total Excretion (% of Dose), 0-72 hours (in vivo, iv, 0.2 mg/kg): 11.3% of Dose | Feces Excretion, Total Excretion (% of Dose), 0-72 hours [1]: 4.1% of Dose | Urinary Excretion, Total Excretion (% of Dose), 0-72 hours [1]: 7.3% of Dose | Feces Excretion, Amount Excreted (% of Dose), 8 hours [1]: 0.12% of Dose | Feces Excretion, Amount Excreted (% of Dose), 8 hours [2]: 0.01% of Dose and 0.02% of Dose and 0.00% of Dose (3×) and 0.67% of Dose | Urinary Excretion, Amount Excreted (% of Dose), 24 hours (intravenous 0.2 mg/kg (Group 1), collection 8-24 hours, Mean): 1.2% of Dose | Urinary Excretion, Amount Excreted (% of Dose), 24 hours (intravenous 0.2 mg/kg (Group 1), collection 8-24 hours, individual animals): 0.94% of Dose | Urinary Excretion, Amount Excreted (% of Dose), 48 hours (intravenous 0.2 mg/kg (Group 1), collection 24-48 hours, Mean): 0.8% of Dose | Feces Excretion, Amount Excreted (% of Dose), 48 hours [3]: 0.47% of Dose and 0.92% of Dose | Urinary Excretion, Amount Excreted (% of Dose), 48 hours [3]: 0.78% of Dose and 0.94% of Dose and 0.75% of Dose and 0.95% of Dose and 0.34% of Dose and 0.85% of Dose | Feces Excretion, Amount Excreted (% of Dose), 72 hours [4]: 0.57% of Dose | Urinary Excretion, Amount Excreted (% of Dose), 72 hours [4]: 0.4% of Dose | Feces Excretion, Amount Excreted (% of Dose), 72 hours [5]: 0.15% of Dose and 0.24% of Dose and 0.44% of Dose and 0.87% of Dose | Urinary Excretion, Amount Excreted (% of Dose), 72 hours [5]: 0.56% of Dose and 0.34% of Dose and 0.51% of Dose and 0.61% of Dose and 0.20% of Dose and 0.26% of Dose | Feces Excretion, Amount Excreted (% of Dose), 96 hours [6]: 0.55% of Dose | Urinary Excretion, Amount Excreted (% of Dose), 96 hours [6]: 0.5% of Dose | Feces Excretion, Amount Excreted (% of Dose), 96 hours [7]: 0.32% of Dose and 0.14% of Dose | Urinary Excretion, Amount Excreted (% of Dose), 96 hours [7]: 0.74% of Dose and 0.15% of Dose and 0.57% of Dose | Feces Excretion, Amount Excreted (% of Dose), 120 hours [1]: 0.41% of Dose | Urinary Excretion, Amount Excreted (% of Dose), 120 hours [1]: 0.3% of Dose | Feces Excretion, Amount Excreted (% of Dose), 120 hours [2]: 0.56% of Dose and 0.12% of Dose and 0.54% of Dose | Urinary Excretion, Amount Excreted (% of Dose), 120 hours [2]: 0.43% of Dose and 0.11% of Dose and 0.27% of Dose | Feces Excretion, Amount Excreted (% of Dose), 144 hours [1]: 0.34% of Dose | Urinary Excretion, Amount Excreted (% of Dose), 144 hours [1]: 0.3% of Dose | Feces Excretion, Amount Excreted (% of Dose), 144 hours [2]: 0.36% of Dose and 0.08% of Dose and 0.59% of Dose | Urinary Excretion, Amount Excreted (% of Dose), 144 hours [2]: 0.59% of Dose and 0.06% of Dose and 0.31% of Dose | Feces Excretion, Amount Excreted (% of Dose), 168 hours [1]: 0.04% of Dose | Urinary Excretion, Amount Excreted (% of Dose), 168 hours [1]: 0.2% of Dose | Feces Excretion, Amount Excreted (% of Dose), 168 hours [2]: 0.06% of Dose and 0.02% of Dose and 0.05% of Dose | Urinary Excretion, Amount Excreted (% of Dose), 168 hours [2]: 0.33% of Dose and 0.18% of Dose and 0.16% of Dose | Feces Excretion, Total Excretion (% of Dose), 0-72 hours [2]: 3.1% of Dose and 8.6% of Dose and 2.4% of Dose and 3.2% of Dose and 2.3% of Dose and 5.0% of Dose | Feces Excretion, Total Excretion (% of Dose), 0-168 hours [2]: 5.6% of Dose and 3.1% of Dose and 8.2% of Dose | Urinary Excretion, Total Excretion (% of Dose), 0-72 hours [2]: 8.0% of Dose and 7.6% of Dose and 7.8% of Dose and 3.9% of Dose and 5.2% of Dose | Concentration in bone, Femur [8]: 0.500 μg 14C-alendronate/g bone | Concentration in bone, Tibia [8]: 0.492 μg 14C-alendronate/g bone | Concentration in bone, Femur [9]: 0.525 μg 14C-alendronate/g bone and 0.408 μg 14C-alendronate/g bone and 0.568 μg 14C-alendronate/g bone | Concentration in bone, Tibia [9]: 0.551 μg 14C-alendronate/g bone and 0.547 μg 14C-alendronate/g bone and 0.379 μg 14C-alendronate/g bone | Concentration in bone, Femur [10]: 0.679 μg 14C-alendronate/g bone | Concentration in bone, Tibia [10]: 0.586 μg 14C-alendronate/g bone | Concentration in bone, Femur [11]: 0.707 μg 14C-alendronate/g bone and 0.692 μg 14C-alendronate/g bone and 0.639 μg 14C-alendronate/g bone | Concentration in bone, Tibia [11]: 0.704 μg 14C-alendronate/g bone and 0.680 μg 14C-alendronate/g bone and 0.374 μg 14C-alendronate/g bone
